Among the data in ChEMBL document CHEMBL5346923, “Novel pyridinium cationic pleuromutilin analogues overcoming bacterial multidrug resistance” (Eur J Med Chem, 2023) are MIC values, retold here.

Each structure is given as a SMILES string.

Assay type in all cases: functional
One assay deals with Enterococcus. The assay can be described thus: Antibacterial activity against vancomycin-resistant Enterococcus ATCC 700221 assessed as inhibition of bacterial growth measured after 24 hrs by MH broth based assay.
The subject of a further assay is Bacillus subtilis. Kind of assay: Antibacterial activity against Bacillus subtilis ATCC 6633 assessed as inhibition of bacterial growth measured after 24 hrs by MH broth based assay.
Assay [1] deals with Staphylococcus aureus. Kind of assay: Antibacterial activity against Staphylococcus aureus ATCC 29213 assessed as inhibition of bacterial growth measured after 24 hrs by MH broth based assay.
The test system of assay [2] is Staphylococcus aureus. Kind of assay: Antibacterial activity against methicillin-resistant Staphylococcus aureus ATCC 43300 assessed as inhibition of bacterial growth measured after 24 hrs by MH broth based assay.
Another assay deals with Streptococcus pneumoniae. The assay can be described thus: Antibacterial activity against Streptococcus pneumoniae ATCC 49619 assessed as inhibition of bacterial growth measured after 24 hrs by MH broth based assay.
Assay [3] relates to Staphylococcus epidermidis. The assay can be described thus: Antibacterial activity against methicillin-resistant Staphylococcus epidermidis ATCC 51625 assessed as inhibition of bacterial growth measured after 24 hrs by MH broth based assay.
A further assay deals with Klebsiella pneumoniae. The assay can be described thus: Antibacterial activity against Klebsiella pneumonia CMCC (B) 46117 assessed as inhibition of bacterial growth measured after 24 hrs by MH broth based assay.
Assay [4] deals with Escherichia coli. Kind of assay: Antibacterial activity against Escherichia coli ATCC 25922 assessed as inhibition of bacterial growth measured after 24 hrs by MH broth based assay.
The subject of a further assay is Proteus. The assay can be described thus: Antibacterial activity against Proteus CMCC (B) 49027 assessed as inhibition of bacterial growth measured after 24 hrs by MH broth based assay.
Assay [5] has as its system Escherichia coli. Kind of assay: Antibacterial activity against Escherichia coli MG1655 assessed as inhibition of bacterial growth measured after 24 hrs by MH broth based assay.
Assay [6] relates to Escherichia coli. The assay can be described thus: Antibacterial activity against Escherichia coli MG1655 harbouring acrB gene assessed as inhibition of bacterial growth measured after 24 hrs by MH broth based assay.

Consider `C=C[C@]1(C)C[C@@H](OC(=O)CSc2cc[n+](CC(=O)N3CCC(CO)CC3)cc2)[C@]2(C)[C@H](C)CC[C@]3(CCC(=O)[C@H]32)[C@@H](C)[C@@H]1O.[I-]`, for which the MIC in the assay on Enterococcus was found to be 64 mg/L; in the assay on Bacillus subtilis, 64 mg/L; in the assay on Staphylococcus aureus [1] it was 2 mg/L; in the assay with Staphylococcus aureus [2], 2 mg/L; in the assay with Streptococcus pneumoniae it was 2 mg/L; in assay [3], 4 mg/L. Further, the MIC is 64 mg/L with Klebsiella pneumoniae; 64 mg/L with Escherichia coli [4]; greater than 64 mg/L in the assay with Proteus; 64 mg/L with Escherichia coli [5]; 16 mg/L in the assay on Escherichia coli [6].

Consider `C=C[C@]1(C)C[C@@H](OC(=O)CSc2cc[n+](CC(=O)N(Cc3ccccc3)Cc3ccccc3)cc2)[C@]2(C)[C@H](C)CC[C@]3(CCC(=O)[C@H]32)[C@@H](C)[C@@H]1O.[I-]`, for which the MIC is 64 mg/L with Enterococcus; 16 mg/L in the assay on Bacillus subtilis; 0.25 mg/L in the assay with Staphylococcus aureus [1]; 0.25 mg/L in the assay with Staphylococcus aureus [2]; less than 0.031 mg/L in the assay with Streptococcus pneumoniae; 0.063 mg/L in [3]. The MIC in the assay on Klebsiella pneumoniae was 32 mg/L; in the assay on Escherichia coli [4], 64 mg/L; in the assay with Proteus, greater than 64 mg/L; in the assay on Escherichia coli [5] it was 64 mg/L; in the assay on Escherichia coli [6], 4 mg/L.

As to `C=C[C@]1(C)C[C@@H](OC(=O)CSc2cc[n+](CCCC)cc2)[C@]2(C)[C@H](C)CC[C@]3(CCC(=O)[C@H]32)[C@@H](C)[C@@H]1O.[Br-]`, the MIC in the assay with Enterococcus worked out at 16 mg/L; with Bacillus subtilis, 64 mg/L; with Staphylococcus aureus [1] it was 0.25 mg/L; in the assay with Staphylococcus aureus [2], 0.25 mg/L; with Streptococcus pneumoniae, 0.063 mg/L; in assay [3], 0.125 mg/L. In addition, the MIC in the assay on Klebsiella pneumoniae was 32 mg/L; with Escherichia coli [4], 64 mg/L; in the assay with Proteus it was greater than 64 mg/L; in the assay with Escherichia coli [5], 64 mg/L; with Escherichia coli [6], 1 mg/L.

Consider `C=C[C@]1(C)C[C@@H](OC(=O)CSc2cc[n+](CC(=O)N3CCS(=O)(=O)CC3)cc2)[C@]2(C)[C@H](C)CC[C@]3(CCC(=O)[C@H]32)[C@@H](C)[C@@H]1O.[I-]`, for which the MIC with Enterococcus is 64 mg/L; in the assay with Bacillus subtilis it was greater than 64 mg/L; with Staphylococcus aureus [1], 8 mg/L; in the assay with Staphylococcus aureus [2] it was 8 mg/L; in the assay on Streptococcus pneumoniae it was 2 mg/L; in assay [3], 4 mg/L. The MIC is greater than 64 mg/L in the assay with Klebsiella pneumoniae; greater than 64 mg/L in the assay on Escherichia coli [4]; greater than 64 mg/L in the assay with Proteus; 32 mg/L with Escherichia coli [5]; 16 mg/L in the assay with Escherichia coli [6].

`C=C[C@]1(C)C[C@@H](OC(=O)CSc2cc[n+](CC(=O)O)cc2)[C@]2(C)[C@H](C)CC[C@]3(CCC(=O)[C@H]32)[C@@H](C)[C@@H]1O.[I-]`: the MIC is 64 mg/L in the assay on Enterococcus; greater than 64 mg/L in the assay with Bacillus subtilis; 8 mg/L in the assay with Staphylococcus aureus [1]; 4 mg/L in the assay on Staphylococcus aureus [2]; 2 mg/L in the assay on Streptococcus pneumoniae; 2 mg/L in assay [3]. In addition, the MIC in the assay on Klebsiella pneumoniae is greater than 64 mg/L; in the assay with Escherichia coli [4], greater than 64 mg/L; in the assay on Proteus, greater than 64 mg/L; in the assay on Escherichia coli [5], greater than 64 mg/L; in the assay with Escherichia coli [6], 32 mg/L.

As for `C=CCC[n+]1ccc(SCC(=O)O[C@@H]2C[C@@](C)(C=C)[C@@H](O)[C@H](C)[C@]34CCC(=O)[C@H]3[C@@]2(C)[C@H](C)CC4)cc1.[I-]`, the MIC with Enterococcus came out at 16 mg/L; in the assay on Bacillus subtilis, 64 mg/L; in the assay with Staphylococcus aureus [1] it was 0.25 mg/L; in the assay with Staphylococcus aureus [2], 0.25 mg/L; in the assay with Streptococcus pneumoniae, 0.125 mg/L; in assay [3] it was 0.25 mg/L. Further, the MIC with Klebsiella pneumoniae worked out at 16 mg/L; in the assay on Escherichia coli [4], 64 mg/L; in the assay with Proteus, 64 mg/L; in the assay with Escherichia coli [5], 32 mg/L; in the assay with Escherichia coli [6], 0.25 mg/L.

As to `C=C[C@]1(C)C[C@@H](OC(=O)CSc2cc[n+](CC(=O)NCc3ccccc3C)cc2)[C@]2(C)[C@H](C)CC[C@]3(CCC(=O)[C@H]32)[C@@H](C)[C@@H]1O.[I-]`, the MIC amounted to 64 mg/L in the assay with Enterococcus; 64 mg/L in the assay with Bacillus subtilis; 0.5 mg/L with Staphylococcus aureus [1]; 0.5 mg/L in the assay with Staphylococcus aureus [2]; 0.5 mg/L in the assay with Streptococcus pneumoniae; 1 mg/L in [3]. For the same molecule, the MIC came to 8 mg/L in the assay with Klebsiella pneumoniae; 64 mg/L in the assay with Escherichia coli [4]; 64 mg/L in the assay on Proteus; 32 mg/L with Escherichia coli [5]; 1 mg/L in the assay with Escherichia coli [6].

For the molecule `C=C[C@]1(C)C[C@@H](OC(=O)CSc2cc[n+](CC(C)C)cc2)[C@]2(C)[C@H](C)CC[C@]3(CCC(=O)[C@H]32)[C@@H](C)[C@@H]1O.[I-]`, the MIC in the assay with Enterococcus amounted to 64 mg/L; with Bacillus subtilis, 64 mg/L; with Staphylococcus aureus [1], 0.5 mg/L; in the assay on Staphylococcus aureus [2] it was 0.5 mg/L; in the assay on Streptococcus pneumoniae, 0.25 mg/L; in assay [3], 0.5 mg/L. In addition, the MIC in the assay on Klebsiella pneumoniae is 64 mg/L; with Escherichia coli [4], 64 mg/L; in the assay with Proteus it was greater than 64 mg/L; with Escherichia coli [5], 64 mg/L; in the assay on Escherichia coli [6], 2 mg/L.

`C=C[C@]1(C)C[C@@H](OC(=O)CSc2cc[n+](CCCCCCCCCCC(=O)O)cc2)[C@]2(C)[C@H](C)CC[C@]3(CCC(=O)[C@H]32)[C@@H](C)[C@@H]1O.[I-]`: the MIC in the assay with Enterococcus came to 64 mg/L; with Bacillus subtilis it was 64 mg/L; in the assay with Staphylococcus aureus [1], 0.5 mg/L; in the assay with Staphylococcus aureus [2], 0.5 mg/L; with Streptococcus pneumoniae, 0.5 mg/L; in [3], 2 mg/L. In addition, the MIC with Klebsiella pneumoniae was found to be 64 mg/L; in the assay with Escherichia coli [4], 64 mg/L; in the assay with Proteus it was 64 mg/L; with Escherichia coli [5], 64 mg/L; in the assay with Escherichia coli [6], 32 mg/L.

For `C=C[C@]1(C)C[C@@H](OC(=O)CSc2cc[n+](CCC)cc2)[C@]2(C)[C@H](C)CC[C@]3(CCC(=O)[C@H]32)[C@@H](C)[C@@H]1O.[I-]`, the MIC is 16 mg/L with Enterococcus; 64 mg/L in the assay with Bacillus subtilis; 0.25 mg/L with Staphylococcus aureus [1]; 0.25 mg/L with Staphylococcus aureus [2]; 0.063 mg/L in the assay with Streptococcus pneumoniae; 0.125 mg/L in assay [3]. In addition, the MIC was found to be 32 mg/L in the assay with Klebsiella pneumoniae; 64 mg/L with Escherichia coli [4]; 64 mg/L in the assay with Proteus; 64 mg/L in the assay on Escherichia coli [5]; 0.5 mg/L in the assay with Escherichia coli [6].

Turning to `C=C[C@]1(C)C[C@@H](OC(=O)CSc2cc[n+](Cc3cccc(NC(=O)OC(C)(C)C)c3)cc2)[C@]2(C)[C@H](C)CC[C@]3(CCC(=O)[C@H]32)[C@@H](C)[C@@H]1O.[I-]`, the MIC in the assay on Enterococcus was 16 mg/L; with Bacillus subtilis, 64 mg/L; with Staphylococcus aureus [1], 0.5 mg/L; with Staphylococcus aureus [2] it was 0.5 mg/L; with Streptococcus pneumoniae, less than 0.031 mg/L; in assay [3], 0.125 mg/L. The MIC in the assay on Klebsiella pneumoniae was 64 mg/L; in the assay with Escherichia coli [4], 64 mg/L; in the assay on Proteus, greater than 64 mg/L; in the assay with Escherichia coli [5], 64 mg/L; in the assay on Escherichia coli [6], 4 mg/L.

As to `C=C[C@]1(C)C[C@@H](OC(=O)CSc2cc[n+](C(C)C)cc2)[C@]2(C)[C@H](C)CC[C@]3(CCC(=O)[C@H]32)[C@@H](C)[C@@H]1O.[I-]`, the MIC in the assay on Enterococcus is 64 mg/L; in the assay with Bacillus subtilis, 64 mg/L; with Staphylococcus aureus [1], 0.5 mg/L; in the assay with Staphylococcus aureus [2], 1 mg/L; in the assay with Streptococcus pneumoniae, 1 mg/L; in assay [3], 2 mg/L. The MIC came out at 64 mg/L with Klebsiella pneumoniae; 64 mg/L in the assay with Escherichia coli [4]; 64 mg/L in the assay on Proteus; 64 mg/L with Escherichia coli [5]; 2 mg/L with Escherichia coli [6].

Take `C=C[C@]1(C)C[C@@H](OC(=O)CSc2cc[n+](CC(=O)NCCc3ccc(O)cc3)cc2)[C@]2(C)[C@H](C)CC[C@]3(CCC(=O)[C@H]32)[C@@H](C)[C@@H]1O.[I-]`: the MIC in the assay on Enterococcus is 64 mg/L; in the assay on Bacillus subtilis it was greater than 64 mg/L; with Staphylococcus aureus [1] it was 0.5 mg/L; in the assay on Staphylococcus aureus [2], 0.5 mg/L; in the assay with Streptococcus pneumoniae, 0.25 mg/L; in assay [3] it was 0.25 mg/L. Moreover, the MIC with Klebsiella pneumoniae is 32 mg/L; in the assay with Escherichia coli [4], 64 mg/L; in the assay on Proteus it was greater than 64 mg/L; with Escherichia coli [5] it was 64 mg/L; in the assay with Escherichia coli [6], 1 mg/L.

For the molecule `C#CC[n+]1ccc(SCC(=O)O[C@@H]2C[C@@](C)(C=C)[C@@H](O)[C@H](C)[C@]34CCC(=O)[C@H]3[C@@]2(C)[C@H](C)CC4)cc1.[I-]`, the MIC in the assay with Enterococcus was 16 mg/L; in the assay with Bacillus subtilis it was 32 mg/L; in the assay on Staphylococcus aureus [1], 0.125 mg/L; in the assay on Staphylococcus aureus [2] it was 0.125 mg/L; in the assay on Streptococcus pneumoniae, less than 0.031 mg/L; in assay [3], 0.031 mg/L. Also, the MIC in the assay on Klebsiella pneumoniae was 8 mg/L; in the assay on Escherichia coli [4], 64 mg/L; with Proteus it was greater than 64 mg/L; in the assay with Escherichia coli [5], 64 mg/L; in the assay with Escherichia coli [6], 0.5 mg/L.

As for `C=CC[n+]1ccc(SCC(=O)O[C@@H]2C[C@@](C)(C=C)[C@@H](O)[C@H](C)[C@]34CCC(=O)[C@H]3[C@@]2(C)[C@H](C)CC4)cc1.[I-]`, the MIC in the assay with Enterococcus was found to be 32 mg/L; with Bacillus subtilis, 64 mg/L; in the assay with Staphylococcus aureus [1] it was 0.5 mg/L; in the assay on Staphylococcus aureus [2], 1 mg/L; in the assay on Streptococcus pneumoniae it was 0.25 mg/L; in assay [3] it was 0.25 mg/L. For the same molecule, the MIC was 64 mg/L with Klebsiella pneumoniae; 64 mg/L with Escherichia coli [4]; greater than 64 mg/L in the assay with Proteus; 64 mg/L in the assay on Escherichia coli [5]; 1 mg/L in the assay on Escherichia coli [6].
